Experimental data: patent US7662361B2, “Methods and compositions for modulating drug activity through telomere damage” (priority 1999, dated 2010)

Tests used:
FaDu, MCF7 and PC3 cells = experiment: Cell Death Detection ELISA, release of DNA-histone complex; assay type: cell-based, human; conditions: single agents vs untreated controls
Method: Apoptosis was measured as the release of DNA-histone complex from the nucleus to the cytoplasm, using the Cell Death Detection ELISA kit which quantifies the amount of DNA-histone complex released into the cytoplasm. Briefly, drug-treated cells were collected and lysed in the lysis buffer. The cytoplasmic fractions of the lysates were placed in wells of a 96-well microtiter plate pre-coated with mouse antihistone primary antibody and mouse anti-DNA-antibody conjugated to peroxidase. The peroxidase substrate, 2,2′-azido-di-[3-ethylbenzthiazoline sulfonate], was applied and the absorbance at 405 nm was measured.
Treatment Protocol. Treatment with the above agents was initiated after cells were allowed to attach to the growth surface in culture flasks. […]
Drug activity evaluation. Agent effect was measured in three ways, i.e., enumeration of the number of cells that remained attached in culture flask, enumeration of the number of cells that detached from the growth surface, and by measuring changes in apoptosis. […] The remaining cell number after agent treatment was measured using the sulforhodamine B (SRB) assay. The drug-induced detachment of cells from the growth surface was determined by counting the attached and detached cells. Drug-induced apoptosis was measured using the Cell Death Detection ELISA kit which measures the release of DNA-histone complex from the nucleus to the cytoplasm. […]

solid tumors = conditions: Gan et al (1996); read-out: concentration that caused 50% cytotoxicity in solid tumors; cited from earlier work
SKOV3 cells = experiment: TALA telomere length after paclitaxel treatment; assay type: cell-based, human; conditions: 200 nM paclitaxel
PC3 cells = experiment: Time course of apoptotic changes (caspase 3, PARP cleavage, DNA fragmentation, DNA-histone release); assay type: cell-based, human; conditions: 20 nM paclitaxel
Method: Caspase Activity. The activity of Caspase 3 was measured using the ApoAlert CPP32 assay (Clontech Laboratories, Palo Alto, Calif.). Briefly, 1×10^6 cells were lysed using the lysis buffer provided in the assay kit. The lysate was stored at −20° C. and analyzed within 1 week. Enzyme activity was detected by the cleavage of the substrate, Asp-Glu-Val-Asp-7-amino-4-trifluoromethyl coumarin (DEVD-AFC) to AFC, which emits a yellow-green fluorescence at 505 nm. The increase in caspase activity is measured as the ratio of the fluorescence intensity of a agent-treated sample (e.g., paclitaxel) to that of control cells collected at the same time.
PARP Cleavage. […] PARP cleavage was analyzed by immunoblotting. […] Protease inhibitors were used to minimize proteolytic cleavage of PARP during processing. […] Samples were sonicated on ice, resuspended using a 21 gauge needle, and then incubated at 75° C. for 15 min. After centrifugation, an aliquot representing 1.5×10^5 cells was loaded on a 10% SDS polyacrylamide gel and run at 30 mA overnight. The gel was transferred onto a […] nitrocellulose membrane by electroblotting. The membrane was incubated with blocking solution (5% non-fat dry milk in PBS containing 0.1% Tween 20) for 1 hr, followed by incubation with the PARP monoclonal antibody overnight at 4° C. and subsequently the anti-mouse immunoglobulin. After washing the membrane in PBS twice for 5 min each and once for 30 min, the immunoreactive bands were visualized by incubation of the membrane with the chemiluminescence immunoblot kit.
Release of DNA-Histone Complex to Cytoplasm. The level of DNA-histone mono- and oligonucleosomes in the cytoplasm was measured using the cell death detection ELISA kit. Briefly, 5000 cells were lysed in the lysis buffer. The cytoplasmic fractions of the lysates were placed in a […] precoated with mouse antihistone primary antibody and mouse anti-DNA antibody conjugated to peroxidase. The peroxidase substrate, 2,2′-azido-di-[3-ethylbenzthiazoline sulfonate], was applied and the absorbance at 405 nm was measured.
DNA Fragmentation. […] DNA was extracted twice with phenol/chloroform (1:1) and once with chloroform, and precipitated by adding 0.2 volume 10 M […] and 2 volumes ethanol. The pellet obtained after centrifugation was resuspended in 100 mM Tris-HCl and 10 mM EDTA (pH 8.0). The amount of DNA was measured by the absorbance at 260 nm, using a spectrophotometer. Samples showing a 260:280 absorbance ratio of >1.8, which ascertained the purity of the isolated DNA, were analyzed by gel electrophoresis. […] The DNA laddering pattern was visualized by UV transillumination and photographed.

FaDu cells [1] = experiment: Externalization of phosphatidylserine (Annexin V); assay type: cell-based, human; conditions: 200 nM paclitaxel
From the text: Externalization of phosphatidylserine. Apoptotic cells lose membrane phospholipid asymmetry and expose phosphatidylserine on the outer leaflet of plasma membrane. The externalized phosphatidylserine was labeled with Annexin V attached to a fluorescence probe FITC (green fluorescence), using the ApoAlert Annexin V assay (Clontech). As apoptosis progresses, propidium iodide penetrates the cell membrane and stains the cytoplasm (yellow-red stain). Briefly, cells were suspended in binding buffer, incubated with Annexin V-FITC and propidium iodide for 5-15 min in the dark, and examined by fluorescence microscopy. Cells labeled with FITC and/or propidium iodide were scored.

telomere length = experiment: TALA telomere length, paclitaxel and AZT alone or in combination; assay type: cell-based, human
From the text: The effect of paclitaxel and AZT, alone or in combination, on telomere length was studied using TALA.

[2] = system: telomerase activity of FaDu cells; experiment: TRAP telomerase activity in drug-treated cells; assay type: cell-based, human; conditions: 200 nM paclitaxel
Method: For the preparation of cell and tissue extracts, cells and tissue were harvested, washed, and stored at −70° C. Cells were then lysed in a SDS-based lysis buffer (10 mM Tris.HCl, pH 7.5, 1 mM MgCl2, 1 mM EGTA, 0.1 mM phenylmethylsulfonyl fluoride, 5 mM β-mercaptoethanol, 0.1% CHAPS, and 10% glycerol), on ice for 10 min. To this mixture, three volumes of CHAPS-based buffer (10 mM Tris-HCl, pH 7.5, 1 mM MgCl2, 1 mM EGTA, 0.1 mM phenylmethylsulfonyl fluoride, 5 mM β-mercaptoethanol, 0.5% CHAPS, and 10% glycerol) were added and kept on ice for 5 min. […] For the extraction of tissues, tissues were homogenized in SDS-based lysis buffer with a Kontes pellet pestle (Fisher, Pittsburgh, Pa.), mixed with three volumes of CHAPS-based buffer, and centrifuged were centrifuged at 8,000 g for 15 min at 4° C. The supernatant was kept at −20° C. The protein concentration of the supernatant was determined using Bicinchoninic Acid Kit (Sigma, St Louis, Mo.). The protein concentration was adjusted to 0.5 μg/μl with CHAPS-based buffer. Samples with equal amounts of protein (1-2 μg) were analyzed by TRAP. […] The TRAP reaction mixture contained 2-4 μl of protein extract, 20 mM Tris.HCl (pH 8.3), 1.5 mM MgCl2, 63 mM KCl, 0.005% Tween-20, 1 mM EGTA, 50 μM dNTPs, 0.1 μg of TS primer, 0.1 mg/ml bovine serum albumin. The mixture was incubated at 30° C. for 30 min, then at 90° C. for 2 min.
This was accomplished by using phenol/chloroform extraction of the cell lysate, as follows. One μg of tRNA and 0.1 ng internal control template were added to the reaction solution after primer extension. The total volume of the mixture was brought to 100 μl with water, mixed with an equal volume of buffer saturated phenol (Life Technology) and then centrifuged at 18,000 g for 3 min, at room temperature. The top aqueous layer (90 μl) was carefully transferred to a new tube and mixed with an equal volume of chloroform:isoamyl alcohol (24:1) solution and centrifuged at 18,000 g for 3 min, at room temperature. The top aqueous layer (80 μl) was again transferred to a new tube and the nucleotides were precipitated with 0.2 volume of 3 M sodium acetate (pH 5.3) and 3 volume of 100% ethanol at −70° C. for at least 2 hr. The mixture was centrifuged at 18,000 g for 15 min at 4° C. […]
The template for the internal standard was amplified by PCR and purified by spin columns (QIAquick PCR purification kit, Qiagen, Valencia, Calif.). The concentration was determined by a spectrophotometer.
PCR was performed on the GeneAmp PCR system 2400 (Perkin Elmer) and initiated by 1 cycle at 94° C. for 3 min, 50° C. for 4 min, and 68° C. for 2 min, then 25 rounds at 94° C. for 30 sec, 50° C. for 30 sec, and 68° C. for 90 sec, followed by 68° C. for 10 min. […] The gel was then dried and the amplification products were detected. […]

[3] = Host toxicity (body weight, death) in xenograft-bearing mice; conditions: single agents
Method: The activity of paclitaxel, with or without AZT, was evaluated in immunodeficient mice (male Balb/c nu/nu mice, 6-8 weeks old) bearing the human pharynx FaDu xenografts. […] The saline control group received injections of 200 μl/day of physiological saline of five consecutive days. The paclitaxel group received injections of 10 mg/kg/day paclitaxel dissolved in Cremophor and ethanol (i.e., Taxol) in a volume of 200 μl for five consecutive days. The AZT group received a seven-day infusion of AZT at a rate of 200 ng/hr by a subcutaneously implanted Alzet minipump. […] Animal weights and tumor sizes were measured on days 1, 3, 6, 8, and 10 after initiation of the paclitaxel treatment.

FaDu cells [4] = experiment: SRB assay of cell number, AZT and paclitaxel; assay type: cell-based, human; conditions: 24 hr
Method: In brief, cells were seeded onto 96-well plates. To avoid changes in drug concentration caused by excessive evaporation of medium in wells located at the edge of the plate only the inner wells in 96-well plates were used. The outer wells contained only tissue culture media to serve as blanks. At the end of drug treatment, the culture medium was removed from the wells by aspiration and the cells were then fixed by incubating with 0.2 ml 10% trichloroacetic acid at 4° C. for 1 hr, followed by five washes with distilled water. The plates were then air-dried after which SRB solution (0.05 ml of 0.4%) was added to stain cells for 10 min at room temperature. […] The amount of SRB was measured by absorbance at 490 nm using an EL 340 microplate biokinetics reader (Bio-Tek Instruments, Inc., Winooski, Vt.). The absorbance is proportional to the number of cells attached to the culture plate. […]
Drug activity evaluation. Agent effect was measured in three ways, i.e., enumeration of the number of cells that remained attached in culture flask, enumeration of the number of cells that detached from the growth surface, and by measuring changes in apoptosis. […] The remaining cell number after agent treatment was measured using the sulforhodamine B (SRB) assay. The drug-induced detachment of cells from the growth surface was determined by counting the attached and detached cells. […]

Structure (SMILES): CC(=O)O[C@H]1C(=O)[C@@]2(C)[C@H]([C@H](OC(=O)c3ccccc3)[C@]3(O)C[C@H](OC(=O)[C@H](O)[C@@H](NC(=O)c4ccccc4)c4ccccc4)C(C)=C1C3(C)C)[C@]1(OC(C)=O)CO[C@@H]1C[C@@H]2O [paclitaxel]
- release of DNA-histone complex from the nucleus to the cytoplasm (FaDu, MCF7 and PC3 cells): significant enhancement
- IC50 (solid tumors): 1000 nM
- shortening of telomeric length (SKOV3 cells; 24 hr, compared to untreated controls): 13%
- telomere shortening on extending treatment (SKOV3 cells; 36 hr): did not produce a greater telomere shortening
- caspase activation, time of occurrence (PC3 cells; attached cells): 24 h
- PARP cleavage completed (PC3 cells; detached cells): < 72 h
- PARP cleavage first detected (PC3 cells; detached cells): 24 h
- caspase activation first detected (PC3 cells; detached cells): 12 h
- caspase activation peak (PC3 cells; detached cells): 36 h
- internucleosomal DNA fragmentation and release of DNA-histone complex first detected (PC3 cells; detached cells): 24 h
- fraction labeled for externalized phosphatidylserine (FaDu cells [1]; attached cells): 6-8%
- time at which labeled fraction became significantly higher than untreated controls (FaDu cells [1]; detached cells): 12 h
- fraction labeled for externalized phosphatidylserine (FaDu cells [1]; detached cells, 24 hr): 60%
- shortening of the average telomeric length (telomere length; 200 nM paclitaxel 24 hr, combination: 10 μM AZT 24 hr pretreatment then AZT plus paclitaxel 24 hr): 13%
- telomere shortening on extending treatment (telomere length; paclitaxel 36 hr): did not produce a greater telomere shortening
- peak telomerase activity ([2]; 3 hr): ~180 % of control value
- telomerase activity ([2]; 24 hr): returning to the baseline level
- telomerase activity ([2]; 48 hr): 50 % of the control values
- toxicity-related death [3]: no toxicity-related death
- Emax (FaDu cells [4]; Homo sapiens, FaDu, paclitaxel alone, up to 10 μM, read-out: maximum effect (reduction of cell number)): 35%
- cell number (FaDu cells [4]; paclitaxel alone 100 nM, fixed concentration method): about 65 % of the control value
